In patent EP3878446A1, “HSD11B1 INHIBITORS FOR USE IN IMMUNOTHERAPY AND USES THEREOF” (UNIVERSITE DE GENEVE, priority 2020, dated 2021):

Columns and labels:
[1] = tested on: human peripheral blood mononuclear cell (PBMC); assay: antigen recall assay (IFNγ secretion by CMV-stimulated PBMC, ELISA); type: cell-based; conditions: co-treatment: 1 µM HSD11B1 inhibitor + 1 µg/ml anti PD-1 (G4K), compared to anti-PD-1 or HSD11B1 inhibitor alone, 1 µg/ml CMV antigen, 50 ng/ml cortisone, 6 days, Fig. 1
From the text: Response to immunotherapy rely on critical biological steps including antigen presentation and T cell activation. Therefore, the therapeutic potential of combining immunotherapy with HSD11B1 inhibition was investigated in an antigen recall assay as described below. Antigen recall assay is the gold standard in vitro method to assess the bioactivity of immune checkpoint inhibitors because it measures at the same time the potential of antigen presenting cells to activate T cell and the actual T cell activation, taking into account thereby the two critical mechanisms required for an optimal response to immunotherapy. The level of IFNγ secreted in this human immune cell-based assay is considered as a good indicator of the T cells activation to immunomodulatory molecules. Cryopreserved human peripheral blood mononuclear cell (PBMC) isolated from cytomegalovirus (CMV) positive heathy donors were thawed in a 37°C water bath and seeded in round bottom 96 well plates at 2 X 10^5 cells/well in 150 µL final volume of RPMI media supplemented with 10% fetal bovin serum, 1% non-essential amino acids, 0.01M Hepes, 1% Penicilin/Streptomycin, 1% L-glutamine and 50 ng/ml cortisone). […] Plates were incubated at 37°C, 6% CO2. After 6 days, supernatants were assayed for IFNγ by ELISA (Biolegend).

[2] = tested on: GFP-expressing Renca cells; assay: murine T cell-mediated tumor cell-killing assay (growth of GFP Renca cells, Incucyte imaging); type: cell-based; conditions: combination: 10 µM HSD11B1 inhibitor + anti-PD-1 (mouse), compared to single treatments; 200 ng/ml 11-DHC; BMDCs, OT-I CD8 T cells, SIINFEKL loaded GFP Renca cells; Fig. 2
Method: Another critical biological mechanism required for an optimal response to immunotherapy of cancer is the capacity of T cells to kill the tumor target cells. The therapeutic potential of combining immunotherapy with HSD11B1 inhibition for the treatment of cancer was therefore assessed in a murine T cell-mediated tumor cell-killing assay. Wild type C57BL/6J murine bone marrow progenitors cells were maintained with 20 ng/ml GMCSF (Peprotech) to induce differentiation into bone marrow derived dendritic cells (BMDCs) for 6 days. At day 6, 2 X 10^4 BMDCs/well together with 2 X 10^3 Renca tumor cells/well were seeded in flat bottom 96 well plate in RPMI 1640 supplemented with 10% FBS, 1% Penicillin/streptomycin, 1% L-glutamine, […] betamercaptoethanol and 0.5% of sodium pyruvate, 32 ng/ml R848 (Invivogen) and 25 µg/ml ovalbumin (Invivogen). After 24 hours, cell supernatant was removed and 1x10^5 OT-I CD8 T cells/well were added in very low endotoxin RPMI 1640 medium supplemented with 10% fetal bovine serum, 1% L-glutamine, 1% penicillin-streptomycin, 1% sodium-pyruvate, 1% glutamine, 1%, non-essential amino acids and […] beta-mercaptoethanol. After 24 hours, 5x10^3 H2kb-recombined; SEQ ID NO: 1 […] (Invivogen) loaded-GFP-expressing Renca cells/well were added. The growth of GFP Renca cells was measured and quantified in real time by cell imaging using the Incucyte technology. […]

Compound | level on IFNγ [1] | growth of tumor cells [2]
O=C(O)CC1CC2(CCN(C(=O)NC3C4CC5CC(C4)CC3C5)CC2)c2c(Br)cccc21 (racemic) [10J, (+/-)-2-(7-bromo-1'-((2-adamantyl)carbamoyl)-2,3-dihydrospiro [indene-1,4'-piperidine]-3-yl) acetic acid] | significantly increased | 
CC1(C)[C@@H](OC(=O)CCC(=O)O)CC[C@]2(C)[C@H]3C(=O)C=C4[C@@H]5C[C@@](C)(C(=O)O)CC[C@]5(C)CC[C@@]4(C)[C@]3(C)CC[C@@H]12 [carbenoxolone, (2S,4aS,6aR,6aS,6bR,8aR,10S,12aS,14bR )-10-(3-carboxypropanoyloxy)-2,4a,6a,6b,9,9,12a-heptamethyl-13-oxo-3,4,5,6,6a,7,8,8a,10,11,12,14b-dodecahydro-1H-picene-2-carboxylic acid] | significantly increased | 
CC(C)(O)c1cccn2c(C3(c4ccc(Cl)cc4)CC3)nnc12 [BMS-823778, 2-[3-[1-(4-chlorophenyl)cyclopropyl]-[1,2,4]triazolo[4,3-a]pyridin-8-yl]propan-2-ol] | significantly increased | inhibited the growth of tumor cells more efficiently than the single treatments
